Test results published in the supplement of paper PMC10307832.

Key:
Test in all cases: relative viability (nuclei count vs DMSO), 5 days (fraction); higher = more cells survive
IU1-47 + Palbociclib = compound: CC1=CC(=C(N1C2=CC=C(C=C2)Cl)C)C(=O)CN3CCCCC3 [IU1-47] + CC(=O)c1c(C)c2cnc(Nc3ccc(N4CCNCC4)cn3)nc2n(C2CCCC2)c1=O [Palbociclib] (partner 0.5 µM)
Outline: (§1)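 A single step with final 0.05% Triton X-100, 1% formaldehyde and 1 ug/ml Hoechst fixed the cells and stained nuclei 5 days after treatment. Lung cancer cell lines in 1536-well plates had been treated by pin tool the day after seeding with one drug alone or a fixed anchor-drug dose plus five library-drug doses (not always all listed) in √10 steps, and nuclei were counted on 4× images. Relative viability is the ratio of nuclei in treated wells to nuclei in vehicle wells, taken as the median of duplicate plates.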

IU1-47 + Luminespib = compound: CC1=CC(=C(N1C2=CC=C(C=C2)Cl)C)C(=O)CN3CCCCC3 [IU1-47] + CCNC(=O)c1noc(-c2cc(C(C)C)c(O)cc2O)c1-c1ccc(CN2CCOCC2)cc1 [Luminespib] (partner 0.01 µM)
Outline: as §1

IU1-47 + AZD7762 = compound: CC1=CC(=C(N1C2=CC=C(C=C2)Cl)C)C(=O)CN3CCCCC3 [IU1-47] + NC(=O)Nc1cc(-c2cccc(F)c2)sc1C(=O)N[C@H]1CCCNC1 [AZD7762] (partner 0.2 µM)
Outline: as §1

FG-4592 + Palbociclib = compound: Cc1nc(C(=O)NCC(=O)O)c(O)c2ccc(Oc3ccccc3)cc12 [FG-4592] + CC(=O)c1c(C)c2cnc(Nc3ccc(N4CCNCC4)cn3)nc2n(C2CCCC2)c1=O [Palbociclib] (partner 0.5 µM)
Outline: as §1

| Cell Line | relative viability (IU1-47 + Palbociclib; first compound 0.08 µM) | relative viability (IU1-47 + Palbociclib; first compound 0.253 µM) | relative viability (IU1-47 + Palbociclib; first compound 0.8 µM) | relative viability (IU1-47 + Palbociclib; first compound 8 µM) | relative viability (IU1-47 + Luminespib; first compound 0.08 µM) | relative viability (IU1-47 + Luminespib; first compound 0.253 µM) | relative viability (IU1-47 + Luminespib; first compound 0.8 µM) | relative viability (IU1-47 + Luminespib; first compound 8 µM) | relative viability (IU1-47 + AZD7762; first compound 0.08 µM) | relative viability (IU1-47 + AZD7762; first compound 0.253 µM) | relative viability (IU1-47 + AZD7762; first compound 0.8 µM) | relative viability (IU1-47 + AZD7762; first compound 8 µM) | relative viability (FG-4592 + Palbociclib; first compound 0.08 µM) | relative viability (FG-4592 + Palbociclib; first compound 0.253 µM) | relative viability (FG-4592 + Palbociclib; first compound 2.53 µM) | relative viability (FG-4592 + Palbociclib; first compound 8 µM) | relative viability (IU1-47 + Palbociclib; first compound 2.53 µM) | relative viability (IU1-47 + Luminespib; first compound 2.53 µM) | relative viability (IU1-47 + AZD7762; first compound 2.53 µM) | relative viability (FG-4592 + Palbociclib; first compound 0.8 µM) |
| --- | --- | --- | --- | --- | --- | --- | --- | --- | --- | --- | --- | --- | --- | --- | --- | --- | --- | --- | --- | --- |
| ABC-1 | 0.763 | 0.921 | 0.65 | 0.582 | 0.957 | 1.01 | 1.02 | 0.733 | 0.765 | 0.671 | 0.774 | 0.729 | 0.718 | 0.503 | 0.537 | 0.437 | – | – | – | – |
| SW 900 | 0.53 | – | 0.564 | 0.513 | 0.191 | 0.172 | 0.181 | 0.194 | 0.694 | – | 0.695 | 0.683 | – | 0.525 | 0.568 | 0.5 | 0.621 | 0.176 | 0.611 | – |
| NCI-H838 | 0.181 | 0.222 | 0.225 | 0.236 | 0.31 | 0.347 | 0.262 | 0.282 | 0.931 | 0.99 | 0.917 | 0.876 | 0.192 | 0.218 | 0.218 | 0.174 | 0.232 | 0.243 | 0.925 | 0.198 |
| NCI-H1648 | 0.285 | 0.289 | 0.282 | 0.265 | – | – | – | – | 0.61 | 0.727 | 0.821 | 0.508 | 0.248 | 0.29 | 0.282 | 0.262 | 0.249 | – | 0.732 | – |
| A-427 | 0.488 | 0.521 | 0.536 | 0.499 | 0.999 | 0.89 | 0.971 | 0.872 | 0.747 | 0.908 | 0.596 | 0.562 | 0.502 | 0.489 | 0.553 | 0.591 | 0.556 | 1.04 | 0.82 | 0.562 |
| NCI-H1792 | 0.727 | 0.643 | 0.707 | 0.544 | 0.573 | 0.358 | 0.515 | 0.568 | 0.501 | 0.613 | 0.643 | 0.619 | 0.493 | 0.614 | 0.661 | 0.684 | 0.44 | 0.308 | 0.666 | 0.689 |
| LCLC-97TM1 | 0.281 | 0.229 | 0.218 | 0.297 | 0.846 | 0.757 | 0.834 | 0.787 | 0.31 | 0.286 | 0.294 | 0.245 | 0.254 | 0.215 | 0.181 | 0.191 | – | 0.716 | 0.0924 | – |
| NCI-H1703 | – | – | – | – | – | – | – | – | 0.0968 | 0.172 | 0.133 | 0.112 | – | – | – | – | – | – | – | – |
| LCLC-103H | 0.551 | 0.531 | 0.506 | 0.469 | 1.11 | 0.982 | 1.03 | 0.989 | 0.84 | 0.948 | 0.797 | 0.807 | 0.474 | 0.408 | 0.467 | 0.454 | 0.478 | 0.818 | 0.54 | 0.414 |
| PC-3 [JPC-3] | 0.562 | 0.531 | 0.602 | 0.559 | 0.822 | 0.695 | 0.723 | 0.603 | 0.72 | 0.856 | 0.866 | 0.741 | 0.55 | 0.542 | 0.557 | 0.567 | 0.546 | 0.466 | 0.828 | – |
| SK-LU-1 | 0.387 | 0.411 | 0.445 | 0.378 | 0.202 | 0.197 | 0.204 | 0.207 | – | – | – | – | 0.308 | 0.325 | 0.378 | 0.372 | 0.4 | 0.238 | – | 0.345 |
| COR-L 105 | 0.479 | 0.449 | 0.399 | 0.438 | 0.775 | 0.673 | 1 | 0.696 | – | – | – | – | 0.419 | 0.433 | 0.34 | 0.418 | 0.388 | 0.809 | – | 0.324 |
| HCC-366 | 0.409 | 0.421 | 0.349 | 0.327 | – | – | – | – | 0.281 | 0.357 | 0.355 | 0.236 | 0.365 | 0.367 | 0.437 | 0.291 | 0.546 | – | 0.267 | 0.311 |
| NCI-H596 | – | – | – | – | 0.926 | 1.05 | 1 | 0.752 | 1.06 | – | 1.03 | 1.03 | – | – | – | – | – | 1.12 | 0.889 | – |
| NCI-H2228 | 0.715 | 0.807 | 0.897 | 0.575 | 0.154 | 0.122 | 0.162 | 0.132 | – | – | – | – | 0.678 | 0.762 | 0.89 | 0.421 | 0.689 | 0.144 | – | 0.603 |
| SK-MES-1 | 0.282 | 0.332 | 0.292 | 0.273 | 0.965 | 0.891 | 0.87 | 0.839 | – | – | – | – | 0.331 | 0.287 | 0.32 | 0.327 | 0.34 | 0.897 | – | 0.284 |
| SW 1573 | 0.357 | 0.385 | 0.379 | 0.31 | 0.196 | 0.179 | 0.129 | 0.23 | – | – | – | – | 0.342 | 0.368 | 0.31 | 0.238 | 0.509 | 0.261 | – | 0.382 |
| NCI-H661 | 0.433 | 0.425 | 0.44 | 0.443 | 0.901 | 0.936 | 1.01 | 0.877 | – | – | – | – | 0.397 | 0.408 | 0.397 | 0.396 | 0.415 | 0.924 | – | 0.373 |
| NCI-H520 | 0.218 | 0.227 | 0.223 | 0.237 | 0.259 | 0.238 | 0.248 | 0.248 | – | – | – | – | 0.15 | 0.174 | 0.215 | 0.162 | 0.204 | 0.285 | – | 0.192 |
| NCI-H2023 | 0.464 | 0.45 | 0.421 | 0.344 | 0.777 | 0.902 | 0.913 | 0.768 | – | – | – | – | 0.334 | 0.323 | 0.397 | 0.286 | 0.47 | 0.885 | – | 0.315 |
| NCI-H2009 | 0.225 | 0.229 | 0.208 | 0.231 | 1.09 | 1.04 | 0.986 | 1.05 | – | – | – | – | 0.196 | 0.201 | 0.24 | 0.0739 | 0.21 | 1.01 | – | 0.228 |
